From ChEMBL document CHEMBL1201862, “PubChem BioAssay data set” (2004)
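48-hour exposure; five concentrations; linearly interpolated endpoints. Here, GI50 denotes the concentration required for 50% inhibition of growth.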 Activity calls are given as the source filed them. Cut-off read from the data, not from the text of the source: active = GI50 up to about 1.1 µM and inactive = higher.

Legend:
Test in all cases: growth of human tumour cells (NCI), 48 h
SF-539 = tested on: SF-539
LOX IMVI = tested on: LOX IMVI
K562 = tested on: K562
SK-MEL-28 = tested on: SK-MEL-28
SK-MEL-2 = tested on: SK-MEL-2
ACHN = tested on: ACHN
NCI-H226 = tested on: NCI-H226
UACC-257 = tested on: UACC-257
SK-OV-3 = tested on: SK-OV-3
HL-60 = tested on: HL-60
HOP-62 = tested on: HOP-62
786-0 = tested on: 786-0
SF-295 = tested on: SF-295
SF-268 = tested on: SF-268
CAKI-1 = tested on: CAKI-1
SNB-75 = tested on: SNB-75
MOLT-4 = tested on: MOLT-4
HCT-15 = tested on: HCT-15
Hs-578T = tested on: Hs-578T
MDA-N = tested on: MDA-N

Row | SMILES | GI50 (SF-539) | GI50 (LOX IMVI) | GI50 (K562) | GI50 (SK-MEL-28) | GI50 (SK-MEL-2) | GI50 (ACHN) | GI50 (NCI-H226) | GI50 (UACC-257) | GI50 (SK-OV-3) | GI50 (HL-60) | GI50 (HOP-62) | GI50 (786-0) | GI50 (SF-295) | GI50 (SF-268) | GI50 (CAKI-1) | GI50 (SNB-75) | GI50 (MOLT-4) | GI50 (HCT-15) [µM] | GI50 (Hs-578T) | GI50 (MDA-N)
1 | CCc1cccc(C)c1NC(=O)C1=C(C)NC(C)=C(C(=O)Nc2c(C)cccc2CC)C1c1ccc([N+](=O)[O-])cc1 | > 100 µM (inactive) | 40.9 µM (inactive) | 23.9 µM (inactive) | 51.4 µM (inactive) | 35.6 µM (inactive) | 18.3 µM (inactive) | 39.8 µM (inactive) | 41.8 µM (inactive) | > 100 µM (inactive) | 17.9 µM (inactive) | 40.1 µM (inactive) | 72.8 µM (inactive) | 58.7 µM (inactive) | 39.9 µM (inactive) | 25.5 µM (inactive) | 3.98 µM (inactive) | 11.6 µM (inactive) |  |  | 
2 | O=c1[nH]c(=O)n([C@@H]2C[C@H](CO)[C@H](O)C2)cc1/C=C/Br | > 100 µM (inactive) | > 100 µM (inactive) | > 100 µM (inactive) | > 100 µM (inactive) | > 100 µM (inactive) | > 100 µM (inactive) | > 100 µM (inactive) | > 100 µM (inactive) | > 100 µM (inactive) | > 100 µM (inactive) | > 100 µM (inactive) | > 100 µM (inactive) | > 100 µM (inactive) | > 100 µM (inactive) | > 100 µM (inactive) | > 100 µM (inactive) | > 100 µM (inactive) | > 100 |  | 
3 | COc1cc2c(cc1OC)[C@@H]([C@H](O)c1ccccc1)NCC2 | > 100 µM (inactive) | > 100 µM (inactive) | > 100 µM (inactive) | > 100 µM (inactive) | > 100 µM (inactive) | > 100 µM (inactive) | > 100 µM (inactive) | > 100 µM (inactive) | > 82.6 µM (inactive) | > 100 µM (inactive) | > 100 µM (inactive) | > 100 µM (inactive) | > 100 µM (inactive) | > 100 µM (inactive) | > 84.9 µM (inactive) | 55 µM (inactive) | > 100 µM (inactive) | > 100 |  | 
4 | NC1=NN(c2ccccc2)C(=O)C1C(=O)CCC(=O)Nc1cccc(Cl)c1 (stereo not drawn) | > 100 µM (inactive) | > 100 µM (inactive) | > 100 µM (inactive) | > 100 µM (inactive) | > 100 µM (inactive) | > 100 µM (inactive) | > 100 µM (inactive) | > 100 µM (inactive) | > 100 µM (inactive) | > 100 µM (inactive) | > 100 µM (inactive) | > 100 µM (inactive) | > 100 µM (inactive) | > 100 µM (inactive) | > 100 µM (inactive) | > 100 µM (inactive) |  | > 100 |  | 
5 | CCOc1ccc(/C(Cl)=C(\C=O)c2ccc(OC)c(OC)c2)cc1OCC | 48.9 µM (inactive) | 64.1 µM (inactive) | 23.5 µM (inactive) | > 100 µM (inactive) | > 100 µM (inactive) | 37.1 µM (inactive) | 67.1 µM (inactive) | 32.3 µM (inactive) | > 100 µM (inactive) | 21.7 µM (inactive) | 30.1 µM (inactive) | 64.9 µM (inactive) | 72.6 µM (inactive) | 63.8 µM (inactive) | > 100 µM (inactive) | 29.9 µM (inactive) | 27.9 µM (inactive) | 28.3 |  | 
6 | O=c1cc(-c2ccccc2)nc(/C=C(\O)c2ccncc2)n1-c1ccccc1 | > 100 µM (inactive) | > 100 µM (inactive) | > 100 µM (inactive) | > 100 µM (inactive) | > 100 µM (inactive) | > 100 µM (inactive) | > 100 µM (inactive) | > 100 µM (inactive) | > 100 µM (inactive) | > 100 µM (inactive) | > 100 µM (inactive) | > 100 µM (inactive) | > 100 µM (inactive) | > 100 µM (inactive) | > 100 µM (inactive) | 70.1 µM (inactive) |  | > 100 |  | 
7 | N#CC(c1ccccc1)c1cccc2ccccc12 (stereo not drawn) | 30.6 µM (inactive) | 21.3 µM (inactive) | 26 µM (inactive) | 69.7 µM (inactive) | 25.6 µM (inactive) | 44.8 µM (inactive) | > 100 µM (inactive) | 24.4 µM (inactive) |  | 21.1 µM (inactive) | 90.2 µM (inactive) | 69.5 µM (inactive) | 46.7 µM (inactive) | 19.9 µM (inactive) | 17.4 µM (inactive) | > 100 µM (inactive) | 17.5 µM (inactive) | 37.9 | 36.7 µM (inactive) | 
8 | COc1ccc2[nH]c3c4c(c5cc(C(C)(C)C)ccc5c3c2c1)C(=O)N(c1ccccc1)C4=O | 21.7 µM (inactive) | > 100 µM (inactive) | > 100 µM (inactive) | > 100 µM (inactive) | > 100 µM (inactive) |  | > 100 µM (inactive) | > 100 µM (inactive) | > 100 µM (inactive) | > 100 µM (inactive) | > 100 µM (inactive) | > 100 µM (inactive) | > 100 µM (inactive) | > 100 µM (inactive) | > 100 µM (inactive) | 57 µM (inactive) | > 100 µM (inactive) |  |  | 
9 | CCCCC(O)(c1ccccc1)C(O)(c1ccccc1)c1c(F)c(F)c(F)c(F)c1F (stereo not drawn) |  |  | 27.4 µM (inactive) | 27 µM (inactive) |  | 19.6 µM (inactive) | 26 µM (inactive) | 18.2 µM (inactive) | 21.5 µM (inactive) | 21.3 µM (inactive) | 17.5 µM (inactive) | 20.1 µM (inactive) | > 10 µM (inactive) | 20 µM (inactive) |  | 37.2 µM (inactive) | 16.8 µM (inactive) | 13.5 |  | 17.9 µM (inactive)
10 | COC(c1ccccc1)C(c1ccccc1)N1CCOCC1 (stereo not drawn) | > 100 µM (inactive) | > 100 µM (inactive) | > 100 µM (inactive) | > 100 µM (inactive) | > 100 µM (inactive) | > 100 µM (inactive) | > 100 µM (inactive) | > 100 µM (inactive) | > 100 µM (inactive) | 89.5 µM (inactive) | > 100 µM (inactive) | > 100 µM (inactive) | > 100 µM (inactive) | > 100 µM (inactive) | > 100 µM (inactive) | > 100 µM (inactive) | > 100 µM (inactive) |  |  | 
11 | O=C1Nc2ccccc2N=CC1NC(=O)C(c1ccccc1)c1ccccc1 (stereo not drawn) | > 100 µM (inactive) | > 100 µM (inactive) | > 100 µM (inactive) | > 100 µM (inactive) | > 100 µM (inactive) | > 100 µM (inactive) | > 100 µM (inactive) | > 100 µM (inactive) | > 100 µM (inactive) | > 100 µM (inactive) | > 100 µM (inactive) | > 100 µM (inactive) | > 100 µM (inactive) | > 100 µM (inactive) | > 100 µM (inactive) | > 100 µM (inactive) | 79.3 µM (inactive) | > 100 |  | 
12 | O=C1Nc2cccc3cc(NCC(O)CCl)cc1c23 (stereo not drawn) |  | 27.3 µM (inactive) | 91.2 µM (inactive) | > 100 µM (inactive) | 21.5 µM (inactive) | 30.3 µM (inactive) | > 100 µM (inactive) | > 100 µM (inactive) | 28.6 µM (inactive) | > 100 µM (inactive) | 49.9 µM (inactive) | 55 µM (inactive) | 73.1 µM (inactive) | 38.4 µM (inactive) | 35.2 µM (inactive) | 25.4 µM (inactive) | 22.8 µM (inactive) | 48.9 | 38 µM (inactive) | 
13 | COc1cc(/C=C2\C[C@H]3[C@@H]4CCc5cc(OCCN6CCCC6)ccc5[C@H]4CC[C@]3(C)C2=O)cc(OC)c1OC | 1.61 µM (inactive) | 1.69 µM (inactive) | 1.62 µM (inactive) |  | 2.26 µM (inactive) | 1.79 µM (inactive) | 1.97 µM (inactive) | 2.2 µM (inactive) | 2.7 µM (inactive) |  | 1.77 µM (inactive) | 1.85 µM (inactive) | 1.79 µM (inactive) |  | 1.75 µM (inactive) |  | 1.31 µM (inactive) | 1.68 |  | 1.67 µM (inactive)
14 | O=C(Nn1c(-c2ccccc2)nc2ccccc2c1=O)c1ccccn1 | 43.7 µM (inactive) | > 100 µM (inactive) | 78.5 µM (inactive) | > 100 µM (inactive) |  | > 100 µM (inactive) |  | > 100 µM (inactive) | > 100 µM (inactive) | 71.4 µM (inactive) | > 100 µM (inactive) | > 100 µM (inactive) | 98.9 µM (inactive) | > 100 µM (inactive) |  | 42.1 µM (inactive) | > 100 µM (inactive) |  | 27.5 µM (inactive) | 
15 | CCn1c(=O)c2nc(SC)sc2n(-c2ccccc2)c1=O | > 100 µM (inactive) | > 100 µM (inactive) | > 100 µM (inactive) | > 100 µM (inactive) | > 100 µM (inactive) | > 100 µM (inactive) | > 100 µM (inactive) | > 100 µM (inactive) | > 100 µM (inactive) | > 100 µM (inactive) | > 100 µM (inactive) | > 100 µM (inactive) | > 100 µM (inactive) | > 100 µM (inactive) |  | > 100 µM (inactive) | > 100 µM (inactive) | > 100 |  | > 100 µM (inactive)
16 | CC12CCC(=O)C[C@H]1CCC(OC=O)C2Br (stereo partly drawn) | > 100 µM (inactive) | > 100 µM (inactive) | > 100 µM (inactive) | > 100 µM (inactive) | > 100 µM (inactive) | > 100 µM (inactive) | > 100 µM (inactive) | > 100 µM (inactive) | > 100 µM (inactive) | > 100 µM (inactive) | > 100 µM (inactive) | > 100 µM (inactive) | > 100 µM (inactive) | > 100 µM (inactive) | > 100 µM (inactive) | > 100 µM (inactive) | > 100 µM (inactive) | > 100 |  | 
